Assay results from patent publication US20050220907A1, “Implanted medical devices with anti-inflammatory coatings” (priority 2004, published 2005).

How the values were obtained:
[1] = Chondroitin sulfate solubility in oils; assay type: physicochemical; settings: in codfish oil, corn oil and olive oil (from the flesh of the olive)
From the text: Parallel experiments with codfish oil, corn oil and olive oil (from the flesh of the olive) were comtemplated, but chondroitin sulfate solubility in these oils was insufficient to meet the requirements of the experiment.

[2] = Effect of olive kernel extract on absorption of tritiated chondroitin sulfate in vivo (serum radioactivity after oral capsule); design: species or system male Sprague-Dawley rats; settings: serum radioactivity at 8 hours
Method: Chondroitin sulfate was tritiated by New England Nuclear Corp. to a specific activity of 4.3 mCi/ml.
Unlabeled chondroitin sulfate was dissolved in olive kernel extract at a ratio of about 55 w/v chondroitin sulfate powder to about 450 w/v of olive kernel extract (2.9% acidity as oleic acid, 1.03% water, 0.08% hexane). To this solution was added 20.2 microcuries of the labeled chondroitin sulfate. AAA gelatin capsules were filled with the resulting solution using an aluminum template molding device.
The laboratory animals (250 g male Sprague-Dawley rats) were kept overnight without food but with free access to water. One capsule containg the above-described chondroitin sulfate-olive kernel extract solution was given to each rat per os. Control animals were given the equivalent amount of chondroitin, but without olive kernel extract. The animals were then given free access to food. Serum radioactivity was measured 8 hours thereafter in a beta scintillation counter.

[3] = commercially available preparations, oral; cited from earlier work

With chondroitin sulfate the “chondroitin sulfate solubility in oils” value [1] was “insufficient”, the “dose of labeled chondroitin sulfate that reached the circulation” value ([2]; control rats, one capsule per os without olive kernel extract, n=3) was “about 3.9%+/−0.4%” and the “dose of labeled chondroitin sulfate absorbed into the general circulation” value ([2]; rats, one capsule per os of chondroitin sulfate dissolved in olive kernel extract, n=4) was “about 14.3%+/−0.7%”. For the same substance, the “chondroitin sulfate absorbed orally” value [3] was “less than 5%”.
